Assay results taken from PMC9454848, “BMS-986158, a Small Molecule Inhibitor of the Bromodomain and Extraterminal Domain Proteins, in Patients with Selected Advanced Solid Tumors: Results from a Phase 1/2a Trial” (Cancers, 2022).
Like-named read-outs stand apart in the source and are kept apart here.

Experiment: Plasma pharmacokinetics after single dose (C1D1), LC-MS/MS
Type: in vivo, human
Conditions: for half-life / Vd/F / AUC(0-t) / Tmax / Cmax: human, plasma, oral
Description: At C1D1 in every dosing schedule cohort, a single dose was administered followed by 168 h (i.e., 7 days) of intensive PK sampling. Following cycle 1, the multiple-dose treatment schedules (described above) began in cycle 2. PK parameters were derived following single dose combined across all schedules and multiple doses at cycle 2 for each schedule. […] PK assessments were evaluated for BMS-986158 and its metabolite using plasma samples at regular intervals. Both the parent and metabolite samples were simultaneously analyzed using a validated liquid chromatography and tandem mass spectrometry assay.
All treated patients who received ≥1 dose of BMS-986158 were evaluated in the safety population. […] All treated patients with available and sufficient serum or plasma samples for the corresponding analytes were included in the PK analyses. […] ECG parameters were evaluated in a categorical analysis, and linear mixed-effects regression modeling was used to describe the quantitative relationship between ΔQTcF and time-matched serum concentrations of BMS-986158 or its metabolite at a single dose.

## Cc1nnn(C)c1-c1cnc2c3ccc(C(C)(C)O)cc3n([C@H](c3ccccc3)C3CCOCC3)c2c1 [BMS-986158]
0.75–4.5 mg
  Dose proportionality of plasma concentrations: dose proportional
0.75 mg, cohort Schedule A, 0.75 mg, n = 4, read-out: Effective T1/2, mean (SD) (converted)
  half-life: 33.7 h
0.75 mg, cohort Schedule A, 0.75 mg, n = 4, read-out: Vz/F, GM (%CV)
  Vd/F: 14.7 L
0.75 mg, cohort Schedule A, 0.75 mg, n = 5, read-out: AUC(0–24), GM (%CV)
  AUC(0-t): 1030 ng·h/mL
0.75 mg, cohort Schedule A, 0.75 mg, n = 5, read-out: AUC(0–T), GM (%CV)
  AUC(0-t): 2150 ng·h/mL
0.75 mg, cohort Schedule A, 0.75 mg, n = 5, read-out: Tmax, median
  Tmax: 4 h
0.75 mg, cohort Schedule A, n = 5
  Cmax: 68.8 ng/mL
1.25 mg, cohort Schedule A, 1.25 mg, n = 3, read-out: AUC(0–24), GM (%CV)
  AUC(0-t): 2310 ng·h/mL
1.25 mg, cohort Schedule A, 1.25 mg, n = 3, read-out: AUC(0–T), GM (%CV)
  AUC(0-t): 6370 ng·h/mL
1.25 mg, cohort Schedule A, 1.25 mg, n = 3, read-out: Effective T1/2, mean (SD) (converted)
  half-life: 48.7 h
1.25 mg, cohort Schedule A, 1.25 mg, n = 3, read-out: Tmax, median
  Tmax: 1 h
1.25 mg, cohort Schedule A, 1.25 mg, n = 3, read-out: Vz/F, GM (%CV)
  Vd/F: 12.5 L
1.25 mg, cohort Schedule A, n = 3
  Cmax: 175 ng/mL
2 mg, cohort Schedule A, 2.0 mg, n = 4, read-out: Effective T1/2, mean (SD) (converted)
  half-life: 41.4 h
2 mg, cohort Schedule A, 2.0 mg, n = 4, read-out: Vz/F, GM (%CV)
  Vd/F: 14.6 L
2 mg, cohort Schedule A, 2.0 mg, n = 9, read-out: AUC(0–24), GM (%CV)
  AUC(0-t): 3610 ng·h/mL
2 mg, cohort Schedule A, 2.0 mg, n = 9, read-out: AUC(0–T), GM (%CV)
  AUC(0-t): 8560 ng·h/mL
2 mg, cohort Schedule A, 2.0 mg, n = 9, read-out: Tmax, median
  Tmax: 2 h
2 mg, cohort Schedule A, n = 9
  Cmax: 260 ng/mL
2 mg, cohort Schedule B, 2.0 mg, n = 1, read-out: AUC(0–24), GM (%CV)
  AUC(0-t): 2360 ng·h/mL
2 mg, cohort Schedule B, 2.0 mg, n = 1, read-out: AUC(0–T), GM (%CV)
  AUC(0-t): 5200 ng·h/mL
2 mg, cohort Schedule B, 2.0 mg, n = 1, read-out: Effective T1/2, mean (SD) (converted)
  half-life: 44.2 h
2 mg, cohort Schedule B, 2.0 mg, n = 1, read-out: Tmax, median
  Tmax: 1 h
2 mg, cohort Schedule B, 2.0 mg, n = 1, read-out: Vz/F, GM (%CV)
  Vd/F: 23.2 L
2 mg, cohort Schedule B, n = 1
  Cmax: 207 ng/mL
2 mg, cohort Schedule C, 2.0 mg, n = 6, read-out: AUC(0–24), GM (%CV)
  AUC(0-t): 3660 ng·h/mL
2 mg, cohort Schedule C, 2.0 mg, n = 6, read-out: AUC(0–T), GM (%CV)
  AUC(0-t): 10900 ng·h/mL
2 mg, cohort Schedule C, 2.0 mg, n = 6, read-out: Effective T1/2, mean (SD) (converted)
  half-life: 64.6 h
2 mg, cohort Schedule C, 2.0 mg, n = 6, read-out: Tmax, median
  Tmax: 1 h
2 mg, cohort Schedule C, 2.0 mg, n = 6, read-out: Vz/F, GM (%CV)
  Vd/F: 13.9 L
2 mg, cohort Schedule C, n = 6
  Cmax: 295 ng/mL
3 mg, cohort Schedule A, 3.0 mg, n = 7, read-out: Effective T1/2, mean (SD) (converted)
  half-life: 33.3 h
3 mg, cohort Schedule A, 3.0 mg, n = 7, read-out: Vz/F, GM (%CV)
  Vd/F: 12.8 L
3 mg, cohort Schedule A, 3.0 mg, n = 10, read-out: AUC(0–24), GM (%CV)
  AUC(0-t): 4940 ng·h/mL
3 mg, cohort Schedule A, 3.0 mg, n = 10, read-out: AUC(0–T), GM (%CV)
  AUC(0-t): 10500 ng·h/mL
3 mg, cohort Schedule A, 3.0 mg, n = 10, read-out: Tmax, median
  Tmax: 2 h
3 mg, cohort Schedule A, n = 10
  Cmax: 328 ng/mL
3 mg, cohort Schedule B, 3.0 mg, n = 1, read-out: Effective T1/2, mean (SD) (converted)
  half-life: 54 h
3 mg, cohort Schedule B, 3.0 mg, n = 1, read-out: Vz/F, GM (%CV)
  Vd/F: 15.3 L
3 mg, cohort Schedule B, 3.0 mg, n = 4, read-out: AUC(0–24), GM (%CV)
  AUC(0-t): 6920 ng·h/mL
3 mg, cohort Schedule B, 3.0 mg, n = 4, read-out: AUC(0–T), GM (%CV)
  AUC(0-t): 28900 ng·h/mL
3 mg, cohort Schedule B, 3.0 mg, n = 4, read-out: Tmax, median
  Tmax: 1.03 h
3 mg, cohort Schedule B, n = 4
  Cmax: 481 ng/mL
3 mg, cohort Schedule C, 3.0 mg, n = 10, read-out: Effective T1/2, mean (SD) (converted)
  half-life: 48.2 h
3 mg, cohort Schedule C, 3.0 mg, n = 10, read-out: Vz/F, GM (%CV)
  Vd/F: 15.6 L
3 mg, cohort Schedule C, 3.0 mg, n = 11, read-out: AUC(0–24), GM (%CV)
  AUC(0-t): 4470 ng·h/mL
3 mg, cohort Schedule C, 3.0 mg, n = 11, read-out: AUC(0–T), GM (%CV)
  AUC(0-t): 11500 ng·h/mL
3 mg, cohort Schedule C, 3.0 mg, n = 11, read-out: Tmax, median
  Tmax: 1 h
3 mg, cohort Schedule C, n = 11
  Cmax: 370 ng/mL
4.5 mg, cohort Schedule A, 4.5 mg, n = 9, read-out: Effective T1/2, mean (SD) (converted)
  half-life: 48.3 h
4.5 mg, cohort Schedule A, 4.5 mg, n = 9, read-out: Vz/F, GM (%CV)
  Vd/F: 15.7 L
4.5 mg, cohort Schedule A, 4.5 mg, n = 10, read-out: AUC(0–24), GM (%CV)
  AUC(0-t): 6790 ng·h/mL
4.5 mg, cohort Schedule A, 4.5 mg, n = 10, read-out: AUC(0–T), GM (%CV)
  AUC(0-t): 19100 ng·h/mL
4.5 mg, cohort Schedule A, 4.5 mg, n = 10, read-out: Tmax, median
  Tmax: 2.04 h
4.5 mg, cohort Schedule A, n = 10
  Cmax: 478 ng/mL
4.5 mg, cohort Schedule C, 4.5 mg, n = 5, read-out: Effective T1/2, mean (SD) (converted)
  half-life: 35.7 h
4.5 mg, cohort Schedule C, 4.5 mg, n = 5, read-out: Vz/F, GM (%CV)
  Vd/F: 11.6 L
4.5 mg, cohort Schedule C, 4.5 mg, n = 7, read-out: AUC(0–24), GM (%CV)
  AUC(0-t): 7420 ng·h/mL
4.5 mg, cohort Schedule C, 4.5 mg, n = 7, read-out: AUC(0–T), GM (%CV)
  AUC(0-t): 17200 ng·h/mL
4.5 mg, cohort Schedule C, 4.5 mg, n = 7, read-out: Tmax, median
  Tmax: 2.02 h
4.5 mg, cohort Schedule C, n = 7
  Cmax: 567 ng/mL
